Measured values taken from ChEMBL document CHEMBL1201862, “PubChem BioAssay data set” (2004).
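Step 1: Grow cells in 96-well plates. Step 2: Expose to compound for 48 hours at 5 concentrations. Step 3: Interpolate endpoints linearly; if unreached, use highest concentration. GI50 is the concentration that inhibits growth by half.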 The source made the active and inactive calls. No stated cut-off is given here; in the data, active = GI50 up to about 1.1 µM and inactive = higher.

Assays:
Test in all cases: DTP human tumour cell line panel, 48 h
786-0 = test system: 786-0
A549 = test system: A549
HCC 2998 = test system: HCC 2998
HCT-15 = test system: HCT-15
HL-60 = test system: HL-60
HT-29 = test system: HT-29
KM12 = test system: KM12
M14 = test system: M14
Malme-3M = test system: Malme-3M
NCI-H522 = test system: NCI-H522
SF-295 = test system: SF-295
SNB-75 = test system: SNB-75
SR = test system: SR
U-251 = test system: U-251
UACC-257 = test system: UACC-257
SK-MEL-2 = test system: SK-MEL-2

Structure (SMILES) | GI50 (786-0) | GI50 (A549) | GI50 (HCC 2998) | GI50 (HCT-15) [µM] | GI50 (HL-60) | GI50 (HT-29) | GI50 (KM12) | GI50 (M14) | GI50 (Malme-3M) | GI50 (NCI-H522) | GI50 (SF-295) | GI50 (SNB-75) | GI50 (SR) | GI50 (U-251) | GI50 (UACC-257) | GI50 (SK-MEL-2)
O=C(c1ccccc1)N1C2CCC1C(C(F)(F)F)=C2C(F)(F)F | > 100 µM (inactive) | > 100 µM (inactive) | > 100 µM (inactive) | > 100 | 45.7 µM (inactive) | > 100 µM (inactive) | > 100 µM (inactive) | > 100 µM (inactive) | > 100 µM (inactive) | > 100 µM (inactive) | > 100 µM (inactive) | > 100 µM (inactive) | > 100 µM (inactive) | > 100 µM (inactive) | > 100 µM (inactive) | 
Cc1cnc2ccc(C)c([N+](=O)[O-])c2c1NCCCN(C)C | > 100 µM (inactive) | > 100 µM (inactive) | > 100 µM (inactive) | > 100 | > 100 µM (inactive) | > 100 µM (inactive) | > 100 µM (inactive) | > 100 µM (inactive) | > 100 µM (inactive) | > 100 µM (inactive) | > 100 µM (inactive) |  | > 100 µM (inactive) | > 100 µM (inactive) | > 100 µM (inactive) | > 100 µM (inactive)
CC1=C(C(=O)Nc2ccc([N+](=O)[O-])cc2)C(c2ccccc2O)C(C(=O)Nc2ccc([N+](=O)[O-])cc2)=C(C)N1 | 21.2 µM (inactive) | 28.2 µM (inactive) | 13.5 µM (inactive) |  | 19.2 µM (inactive) | 28.4 µM (inactive) | 20.2 µM (inactive) | 19.3 µM (inactive) | 21.8 µM (inactive) | 15 µM (inactive) | 29.6 µM (inactive) | 25.8 µM (inactive) |  | 21.4 µM (inactive) | 21.7 µM (inactive) | 15.6 µM (inactive)
O=C1c2cnccc2Cc2cccc3c2N1c1ccccc1S3 | 28.1 µM (inactive) | 23.6 µM (inactive) | 16.6 µM (inactive) | 23.3 | 21.1 µM (inactive) | 23.9 µM (inactive) | 19.7 µM (inactive) | 24.3 µM (inactive) | 24.7 µM (inactive) | 12.5 µM (inactive) | 28.2 µM (inactive) | 12.6 µM (inactive) | 12.4 µM (inactive) | 16.6 µM (inactive) | 23.3 µM (inactive) | 16.8 µM (inactive)
Cc1cc(N(CCC#N)CCC#N)ccc1/N=N/c1ccccc1[N+](=O)[O-] | > 100 µM (inactive) | > 100 µM (inactive) | > 100 µM (inactive) | > 100 | > 100 µM (inactive) | > 100 µM (inactive) | > 100 µM (inactive) | > 100 µM (inactive) | > 100 µM (inactive) | > 100 µM (inactive) | > 100 µM (inactive) | 34 µM (inactive) |  | > 100 µM (inactive) | > 100 µM (inactive) | > 100 µM (inactive)
CCc1cc(Cc2cc(CC)c(NC(=O)C(=O)Cc3ccccn3)c(CC)c2Cl)c(Cl)c(CC)c1NC(=O)C(=O)Cc1ccccn1 | > 100 µM (inactive) | > 100 µM (inactive) | > 100 µM (inactive) | 39.4 | > 100 µM (inactive) | 70 µM (inactive) | 78.3 µM (inactive) | 75.2 µM (inactive) | > 100 µM (inactive) |  | > 100 µM (inactive) | > 100 µM (inactive) | > 100 µM (inactive) | 19.4 µM (inactive) | 40.4 µM (inactive) | > 100 µM (inactive)
O=C(O)/C(Cl)=C(\Cl)C(=O)Nc1ccccc1 | > 100 µM (inactive) | > 100 µM (inactive) | > 100 µM (inactive) | > 100 |  | > 100 µM (inactive) | > 100 µM (inactive) | > 100 µM (inactive) | > 100 µM (inactive) |  | > 100 µM (inactive) | > 100 µM (inactive) | > 100 µM (inactive) | > 100 µM (inactive) | > 100 µM (inactive) | > 100 µM (inactive)
CN(C)CN(C)c1nc(N(C)C)nc(N(C)CN(C)C)n1 | 34.4 µM (inactive) | > 100 µM (inactive) | > 100 µM (inactive) | 24.7 | 17 µM (inactive) | 57.8 µM (inactive) | > 100 µM (inactive) | 36.7 µM (inactive) |  | > 100 µM (inactive) | > 100 µM (inactive) | 60.3 µM (inactive) | 24.4 µM (inactive) | > 100 µM (inactive) | 34.7 µM (inactive) | 20.9 µM (inactive)
COc1cc(C(=O)N2CCc3c([nH]c4c([N+](=O)[O-])c(OC)ccc34)C2C)cc(OC)c1OC (centres undefined) | > 100 µM (inactive) | > 100 µM (inactive) | > 100 µM (inactive) | > 100 | > 100 µM (inactive) | > 100 µM (inactive) | > 100 µM (inactive) | > 100 µM (inactive) |  | > 100 µM (inactive) | > 100 µM (inactive) | 40.8 µM (inactive) | > 100 µM (inactive) | > 100 µM (inactive) | > 100 µM (inactive) | > 100 µM (inactive)
CCOC(=O)/C(C#N)=C/c1[nH]c(C)c(C)c1C | > 100 µM (inactive) | > 100 µM (inactive) | > 100 µM (inactive) | > 100 | > 100 µM (inactive) | > 100 µM (inactive) | > 100 µM (inactive) | > 100 µM (inactive) | > 100 µM (inactive) | > 100 µM (inactive) | > 100 µM (inactive) | > 100 µM (inactive) |  | > 100 µM (inactive) | > 100 µM (inactive) | > 100 µM (inactive)
COc1ccc(NC(=O)CC(=O)NN2C(=O)/C(=C/c3ccc(N(CCC#N)CCC#N)cc3C)N=C2/C=C\c2ccccc2)cc1 | > 100 µM (inactive) | > 100 µM (inactive) |  | > 100 | > 100 µM (inactive) | > 100 µM (inactive) | > 100 µM (inactive) | > 100 µM (inactive) | > 100 µM (inactive) | > 100 µM (inactive) | > 100 µM (inactive) | 59.3 µM (inactive) | > 100 µM (inactive) | > 100 µM (inactive) | > 100 µM (inactive) | > 100 µM (inactive)
CC(C)C12Cc3c(ccc4ccccc34)OC1(C)Oc1ccc3ccccc3c1C2 (centres undefined) | > 100 µM (inactive) | > 100 µM (inactive) |  |  |  | > 100 µM (inactive) | > 100 µM (inactive) | > 100 µM (inactive) | > 100 µM (inactive) | 63.7 µM (inactive) | > 100 µM (inactive) | > 100 µM (inactive) | > 100 µM (inactive) | > 100 µM (inactive) |  | > 100 µM (inactive)
Cc1ccc(NC(=O)C2C(=O)N(c3ccc(C)c(C)c3)C(=O)/C2=N\NC(N)=S)cc1C (centres undefined) | > 100 µM (inactive) | > 100 µM (inactive) |  | > 100 | > 100 µM (inactive) | 78 µM (inactive) | > 100 µM (inactive) | > 100 µM (inactive) | > 100 µM (inactive) | 50.2 µM (inactive) | > 100 µM (inactive) | > 100 µM (inactive) | > 100 µM (inactive) | 58.3 µM (inactive) | > 100 µM (inactive) | > 100 µM (inactive)
COc1ccc2c3c(c(C(=O)O)oc13)C(CCC(=O)O)CC2 (centres undefined) | > 100 µM (inactive) | > 100 µM (inactive) | > 100 µM (inactive) | > 100 |  | > 100 µM (inactive) |  | > 100 µM (inactive) |  |  | > 100 µM (inactive) | > 100 µM (inactive) |  | > 100 µM (inactive) | > 100 µM (inactive) | 
CCCCCCCCCCCCCC(=O)OC1CC(=O)OC1CO (centres undefined) | > 100 µM (inactive) | 55.1 µM (inactive) | 60.3 µM (inactive) | 18.5 | 23 µM (inactive) | 32.1 µM (inactive) | 22.9 µM (inactive) | 19.3 µM (inactive) | > 100 µM (inactive) |  | 21.5 µM (inactive) | 79.6 µM (inactive) |  | 53.6 µM (inactive) | > 100 µM (inactive) | > 100 µM (inactive)
Cc1cccc(C)c1N1C(=O)C(=O)C(c2nc3ccccc3s2)/C(=N/c2cccc3c(=O)[nH][nH]c(=O)c23)C1=O (centres undefined) | > 100 µM (inactive) | > 100 µM (inactive) | > 100 µM (inactive) | > 100 | 71.3 µM (inactive) | > 100 µM (inactive) | > 100 µM (inactive) | > 100 µM (inactive) | > 100 µM (inactive) |  | > 100 µM (inactive) | 81.8 µM (inactive) | 99.5 µM (inactive) | 83 µM (inactive) | > 100 µM (inactive) | > 100 µM (inactive)
NCCNCc1c2ccccc2c(CNCCN)c2ccccc12 | 13.3 µM (inactive) | 12.1 µM (inactive) | 9.59 µM (inactive) | 38 | 20.4 µM (inactive) | 6.21 µM (inactive) | 15.3 µM (inactive) | 16.3 µM (inactive) | 14 µM (inactive) | 8.13 µM (inactive) | 17.4 µM (inactive) |  | 4.18 µM (inactive) | 22 µM (inactive) | 16.4 µM (inactive) | 14.5 µM (inactive)
NC(=O)C(=O)CC(=O)c1ccccc1NC1=CC(=O)C(=O)c2ccccc21 | > 61.1 µM (inactive) | > 100 µM (inactive) | > 100 µM (inactive) | > 53.5 | 22.6 µM (inactive) | > 100 µM (inactive) | 54.3 µM (inactive) | 46.6 µM (inactive) | 31.7 µM (inactive) | 30.2 µM (inactive) |  | > 88.3 µM (inactive) |  | > 70 µM (inactive) | 34.7 µM (inactive) | 65.8 µM (inactive)
CS(=O)(=O)OCCn1cnc2nc(NC(=O)c3ccccc3)[nH]c(=O)c21 | > 100 µM (inactive) | > 100 µM (inactive) |  | > 100 | > 100 µM (inactive) | > 100 µM (inactive) | > 100 µM (inactive) | > 100 µM (inactive) | > 100 µM (inactive) | > 100 µM (inactive) | > 100 µM (inactive) | > 100 µM (inactive) | > 100 µM (inactive) | > 100 µM (inactive) | > 100 µM (inactive) | > 100 µM (inactive)
